Data on twelve compounds can be found in patent publication US8748415B2 (priority 2011, dated 2014).

Molecules are shown by their SMILES.

As usually defined, the EC50 is the concentration giving half of the maximal effect.

The test system of the assay is recombinant NL4-3 virus (Renilla luciferase in nef, Gag P373S). The assay is described as follows: HIV cell culture assay (luciferase activity in MT-2 cells infected with NLRluc recombinant virus). It is filed as cell-based. The note with it: NL43, MT-2 cells infected 4-5 days with NLRluc recombinant virus. As to the method:
HIV cell culture assay—MT-2 cells and 293T cells were obtained from the NIH AIDS Research and Reference Reagent Program. MT-2 cells were propagated in RPMI 1640 media supplemented with 10% heat inactivated fetal bovine serum, […]. The 293T cells were propagated in DMEM media supplemented with 10% heat inactivated fetal bovine serum (FBS), 100 units/ml penicillin G and 100 μg/ml streptomycin. The proviral DNA clone of NL4-3 was obtained from the NIH AIDS Research and Reference Reagent Program. A recombinant NL4-3 virus, in which a section of the nef gene from NL4-3 was replaced with the Renilla luciferase gene, was used as a reference virus. In addition, residue Gag P373 was converted to P373S. Briefly, the recombinant virus was prepared by transfection of the altered proviral clone of NL4-3. Transfections were performed in 293T cells using LipofectAMINE PLUS from Invitrogen (Carlsbad, Calif.), according to manufacturer's instruction. The virus was titered in MT-2 cells using luciferase enzyme activity as a marker. Luciferase was quantitated using the Dual Luciferase kit from Promega (Madison, Wis.), with modifications to the manufacturer's protocol. The diluted Passive Lysis solution was pre-mixed with the re-suspended Luciferase Assay Reagent and the re-suspended Stop & Glo Substrate (2:1:1 ratio). Fifty (50) μL of the mixture was added to each aspirated well on assay plates and luciferase activity was measured immediately on a Wallac TriLux (Perkin-Elmer). Antiviral activities of inhibitors toward the recombinant virus were quantified by measuring luciferase activity in cells infected for 4-5 days with NLRluc recombinants in the presence serial dilutions of the inhibitor. Table 1 is the key for the data in Table 2.

For `C=C(C)[C@@H]1CC[C@]2(CNCC3CCCN3CC)CC[C@]3(C)[C@H](CC[C@@H]4[C@@]5(C)CC=C(c6ccc(C(=O)O)cc6)C(C)(C)[C@@H]5CC[C@]43C)[C@@H]12` (single isomer, unassigned) [Example 3], under “numeric value”, the EC50 was determined as 30 nM.

For `C=C(C)[C@@H]1CC[C@]2(CNCC3CCCN3CC)CC[C@]3(C)[C@H](CC[C@@H]4[C@@]5(C)CC=C(c6ccc(C(=O)O)cc6)C(C)(C)[C@@H]5CC[C@]43C)[C@@H]12` (single isomer, unassigned) [Example 4], the concentration for a half-maximal effect (EC50) (class symbol) is less than 100 nM.

Turning to `C=C(C)[C@@H]1CC[C@]2(CNCCN(C)C)CC[C@]3(C)[C@H](CC[C@@H]4[C@@]5(C)CC=C(c6ccc(C(=O)O)cc6)C(C)(C)[C@@H]5CC[C@]43C)[C@@H]12` [Example 1, 4-((1R,3aS,5aR,5bR,7aR,11aS,11bR,13aR,13bR)-3a-((2-(dimethylamino)ethylamino)methyl)-5a,5b,8,8,11a-pentamethyl-1-(prop-1-en-2-yl)-2,3,3a,4,5,5a,5b,6,7,7a,8,11,11a,11b,12,13,13a,13b-octadecahydro-1H-cyclopenta[a]chrysen-9-yl)benzoic acid], the EC50 (class symbol) was less than 100 nM.

`C=C(C)[C@@H]1CC[C@]2(CNCCCN3CCOCC3)CC[C@]3(C)[C@H](CC[C@@H]4[C@@]5(C)CC=C(c6ccc(C(=O)O)cc6)C(C)(C)[C@@H]5CC[C@]43C)[C@@H]12` [Example 2, 4-((1R,3aS,5aR,5bR,7aR,11aS,11bR,13aR,13bR)-5a,5b,8,8,11a-pentamethyl-3a-((3-morpholinopropylamino)methyl)-1-(prop-1-en-2-yl)-2,3,3a,4,5,5a,5b,6,7,7a,8,11,11a,11b,12,13,13a,13b-octadecahydro-1H-cyclopenta[a]chrysen-9-yl)benzoic acid]: the EC50 (class symbol) is less than 100 nM.

In the case of `C=C(C)[C@@H]1CC[C@]2(CNCCc3ccccn3)CC[C@]3(C)[C@H](CC[C@@H]4[C@@]5(C)CC=C(c6ccc(C(=O)O)cc6)C(C)(C)[C@@H]5CC[C@]43C)[C@@H]12` [Example 5, 4-((1R,3aS,5aR,5bR,7aR,11aS,11bR,13aR,13bR)-5a,5b,8,8,11a-pentamethyl-1-(prop-1-en-2-yl)-3a-((2-(pyridin-2-yl)ethylamino)methyl)-2,3,3a,4,5,5a,5b,6,7,7a,8,11,11a,11b,12,13,13a,13b-octadecahydro-1H-cyclopenta[a]chrysen-9-yl)benzoic acid], the EC50 (numeric value) came to 20 nM.

In the case of `C=C(C)[C@@H]1CC[C@]2(CNCCCN(C)C)CC[C@]3(C)[C@H](CC[C@@H]4[C@@]5(C)CC=C(c6ccc(C(=O)O)cc6)C(C)(C)[C@@H]5CC[C@]43C)[C@@H]12` [Example 6, 4-((1R,3aS,5aR,5bR,7aR,11aS,11bR,13aR,13bR)-3a-((3-(dimethylamino)propylamino)methyl)-5a,5b,8,8,11a-pentamethyl-1-(prop-1-en-2-yl)-2,3,3a,4,5,5a,5b,6,7,7a,8,11,11a,11b,12,13,13a,13b-octadecahydro-1H-cyclopenta[a]chrysen-9-yl)benzoic acid], the EC50 (numeric value) stood at 30 nM.

As for `C=C(C)[C@@H]1CC[C@]2(CNCCNC(C)=O)CC[C@]3(C)[C@H](CC[C@@H]4[C@@]5(C)CC=C(c6ccc(C(=O)O)cc6)C(C)(C)[C@@H]5CC[C@]43C)[C@@H]12` [Example 7, 4-((1R,3aS,5aR,5bR,7aR,11aS,11bR,13aR,13bR)-3a-((2-acetamidoethylamino)methyl)-5a,5b,8,8,11a-pentamethyl-1-(prop-1-en-2-yl)-2,3,3a,4,5,5a,5b,6,7,7a,8,11,11a,11b,12,13,13a,13b-octadecahydro-1H-cyclopenta[a]chrysen-9-yl)benzoic acid], the EC50 (class symbol) was less than 100 nM.

Take `C=C(C)[C@@H]1CC[C@]2(CNCCN3CCNCC3)CC[C@]3(C)[C@H](CC[C@@H]4[C@@]5(C)CC=C(c6ccc(C(=O)O)cc6)C(C)(C)[C@@H]5CC[C@]43C)[C@@H]12` [Example 8, 4-((1R,3aS,5aR,5bR,7aR,11aS,11bR,13aR,13bR)-5a,5b,8,8,11a-pentamethyl-3a-((2-(piperazin-1-yl)ethylamino)methyl)-1-(prop-1-en-2-yl)-2,3,3a,4,5,5a,5b,6,7,7a,8,11,11a,11b,12,13,13a,13b-octadecahydro-1H-cyclopenta[a]chrysen-9-yl)benzoic acid]: where the note is “class symbol”, the EC50 is less than 100 nM.

On to `C=C(C)[C@@H]1CC[C@]2(CNCCN3CCCCC3)CC[C@]3(C)[C@H](CC[C@@H]4[C@@]5(C)CC=C(c6ccc(C(=O)O)cc6)C(C)(C)[C@@H]5CC[C@]43C)[C@@H]12` [Example 9, 4-((1R,3aS,5aR,5bR,7aR,11aS,11bR,13aR,13bR)-5a,5b,8,8,11a-pentamethyl-3a-((2-(piperidin-1-yl)ethylamino)methyl)-1-(prop-1-en-2-yl)-2,3,3a,4,5,5a,5b,6,7,7a,8,11,11a,11b,12,13,13a,13b-octadecahydro-1H-cyclopenta[a]chrysen-9-yl)benzoic acid], for which the EC50 (class symbol) was less than 100 nM.

In the case of `C=C(C)[C@@H]1CC[C@]2(CNCC(c3cccnc3)N(C)C)CC[C@]3(C)[C@H](CC[C@@H]4[C@@]5(C)CC=C(c6ccc(C(=O)O)cc6)C(C)(C)[C@@H]5CC[C@]43C)[C@@H]12` (stereo partly drawn) [Example 10, 4-((1R,3aS,5aR,5bR,7aR,11aS,11bR,13aR,13bR)-3a-((2-(dimethylamino)-2-(pyridin-3-yl)ethylamino)methyl)-5a,5b,8,8,11a-pentamethyl-1-(prop-1-en-2-yl)-2,3,3a,4,5,5a,5b,6,7,7a,8,11,11a,11b,12,13,13a,13b-octadecahydro-1H-cyclopenta[a]chrysen-9-yl)benzoic acid], for the setting “numeric value”, the EC50 was 4 nM.

For `C=C(C)[C@@H]1CC[C@]2(CNCCN3CCN(C)CC3)CC[C@]3(C)[C@H](CC[C@@H]4[C@@]5(C)CC=C(c6ccc(C(=O)O)cc6)C(C)(C)[C@@H]5CC[C@]43C)[C@@H]12` [Example 11, 4-((1R,3aS,5aR,5bR,7aR,11aS,1bR,13aR,13bR)-5a,5b,8,8,11a-pentamethyl-3a-((2-(4-methylpiperazin-1-yl)ethylamino)methyl)-1-(prop-1-en-2-yl)-2,3,3a,4,5,5a,5b,6,7,7a,8,11,11a,11b,12,13,13a,13b-octadecahydro-1H-cyclopenta[a]chrysen-9-yl)benzoic acid], the EC50 (class symbol) was less than 100 nM.

With `C=C(C)[C@@H]1CC[C@]2(CN(CCN(C)C)C(=O)CC(=O)O)CC[C@]3(C)[C@H](CC[C@@H]4[C@@]5(C)CC=C(c6ccc(C(=O)O)cc6)C(C)(C)[C@@H]5CC[C@]43C)[C@@H]12` [Example 12, 4-((1R,3aS,5aR,5bR,7aR,11aS,11bR,13aR,13bR)-3a-((2-carboxy-N-(2-(dimethylamino)ethyl)acetamido)methyl)-5a,5b,8,8,11a-pentamethyl-1-(prop-1-en-2-yl)-2,3,3a,4,5,5a,5b,6,7,7a,8,11,11a,11b,12,13,13a,13b-octadecahydro-1H-cyclopenta[a]chrysen-9-yl)benzoic acid], the EC50 (class symbol) is less than 100 nM.
